Results reported in paper PMC9299130 (Journal of Thrombosis and Haemostasis, 2021).
One block for each compound: values may come before it.

Experiments:
[1] = system: rabbit platelet-rich plasma; details: 3µM; cited from earlier work
[2] = system: pooled human plasma; assay: Prothrombin time in pooled human plasma; format: biochemical; details: 40 μM total plasma concentration; baseline 10.3 ± 0.1 s
[3] = system: pooled human plasma; assay: Thrombin clotting time in pooled human plasma; format: biochemical; details: baseline 16.6 s
[4] = system: cynomolgus monkey plasma; assay: In vitro PT in cynomolgus monkey plasma; format: biochemical; details: 40 μM, reagent not given
[5] = system: cynomolgus monkey plasma; assay: Ecarin clotting time in cynomolgus monkey plasma; format: biochemical; details: 40 μM
[6] = system: rabbit platelet-rich plasma; assay: In vitro platelet aggregation in hirudin-treated rabbit platelet-rich plasma; format: cell-based; details: for peak platelet aggregation response to ADP (10 µM): control 59 ± 1%; for peak platelet aggregation response to ADP (10 µM) / peak platelet aggregation response to collagen (10 µg/ml) / peak platelet aggregation response to arachidonic acid (250 µM): n = 4; for peak platelet aggregation response to collagen (10 µg/ml): control 66 ± 1%; for peak platelet aggregation response to arachidonic acid (250 µM): control 67 ± 1%
[7] = Pharmacokinetics in rabbits; details: rabbit, in vivo
[8] = system: electrically mediated carotid arterial thrombosis; assay: Rabbit ECAT model, prevention of thrombosis; format: in vivo
[9] = Ex vivo coagulation assays; format: in vivo, rabbit
[10] = biological target: recombinant FXIa (Canis lupus familiaris, UniProt A0A8I3NYS2); details: dog recombinant FXIa
[11] = biological target: recombinant FXIa (Rattus norvegicus, UniProt F7F105)
[12] = biological target: recombinant FXIa (Macaca fascicularis, UniProt A0A2K5VVW4); assay: biochemical
[13] = biological target: recombinant FXIa (Oryctolagus cuniculus, UniProt G1SSQ6); assay: biochemical
[14] = ECAT rabbits, 120 min after start of infusion

recombinant FXIa (Oryctolagus cuniculus, UniProt G1SSQ6), sequence (G1SSQ6 387-624): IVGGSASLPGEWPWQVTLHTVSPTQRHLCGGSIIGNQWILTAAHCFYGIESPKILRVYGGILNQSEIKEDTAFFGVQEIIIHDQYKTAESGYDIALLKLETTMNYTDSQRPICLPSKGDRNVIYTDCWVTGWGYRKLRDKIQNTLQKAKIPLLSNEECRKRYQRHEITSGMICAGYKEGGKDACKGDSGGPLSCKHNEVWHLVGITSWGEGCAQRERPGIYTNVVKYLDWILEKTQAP
recombinant FXIa (Canis lupus familiaris, UniProt A0A8I3NYS2), sequence (A0A8I3NYS2 389-626): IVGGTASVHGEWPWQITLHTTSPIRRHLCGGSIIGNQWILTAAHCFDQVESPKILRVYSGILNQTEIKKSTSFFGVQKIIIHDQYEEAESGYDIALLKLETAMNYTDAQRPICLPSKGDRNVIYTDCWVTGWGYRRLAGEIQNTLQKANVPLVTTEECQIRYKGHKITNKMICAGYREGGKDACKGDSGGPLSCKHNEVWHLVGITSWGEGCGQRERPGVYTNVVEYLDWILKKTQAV
recombinant FXIa (Macaca fascicularis, UniProt A0A2K5VVW4), sequence (A0A2K5VVW4 388-625): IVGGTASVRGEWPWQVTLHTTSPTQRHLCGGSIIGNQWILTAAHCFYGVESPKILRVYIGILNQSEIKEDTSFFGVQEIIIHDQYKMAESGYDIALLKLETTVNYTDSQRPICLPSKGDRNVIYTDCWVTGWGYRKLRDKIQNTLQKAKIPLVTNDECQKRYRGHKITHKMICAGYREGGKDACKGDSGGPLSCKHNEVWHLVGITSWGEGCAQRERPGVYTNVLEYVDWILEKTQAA
recombinant FXIa (Rattus norvegicus, UniProt F7F105), sequence (F7F105 400-556): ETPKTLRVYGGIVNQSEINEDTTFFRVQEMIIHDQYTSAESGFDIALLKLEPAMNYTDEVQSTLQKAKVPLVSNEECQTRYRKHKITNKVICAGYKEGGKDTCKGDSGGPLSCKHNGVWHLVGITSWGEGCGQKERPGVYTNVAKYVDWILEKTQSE

SMILES: Cc1noc(C)c1S(=O)(=O)N[C@@H](CNC(=O)C[C@H]1CC(c2ccc(C(=N)N)cc2)=NO1)C(=O)O [DMP802]
platelet aggregation responses to ADP, arachidonic acid, and collagen [1]: almost completely inhibited

concentration at 10 min ([7]; male, iv, 0.8 mg/kg): 2000 nM | concentration at 8 h ([7]; male, iv, 0.8 mg/kg): 100 nM | concentration at 1 h ([7]; po, 20 mg/kg): 2000 nM | concentration at 24 h ([7]; po, 20 mg/kg): 40 nM | Ki [10]: 640 ± 30 pM | Ki [11]: 490000 ± 40000 pM | Ki [12]: 150 ± 10 pM | Ki [13]: 380 ± 10 pM
SMILES: C[C@@H]1CCC[C@H](n2cnc(-c3cc(Cl)ccc3-n3cc(Cl)nn3)cc2=O)c2cc(ccn2)-c2c(cnn2C(F)F)NC1=O [milvexian]
PT [2]: 12.9 ± 0.4 s | TT ([3]; 20 μM total plasma concentration): 24.8 s | TT ([3]; 40 μM total plasma concentration): 28.4 s | PT increase over baseline [4]: approximately 2 × | ecarin clotting time increase over baseline [5]: 1.9 × | peak platelet aggregation response to ADP (10 µM) ([6]; milvexian 1 μM): 58 ± 2% | peak platelet aggregation response to collagen (10 µg/ml) ([6]; milvexian 1 μM): 67 ± 2% | peak platelet aggregation response to arachidonic acid (250 µM) ([6]; milvexian 1 μM): 65 ± 1% | peak platelet aggregation response to ADP (10 µM) ([6]; milvexian 10 μM): 55 ± 2% | peak platelet aggregation response to collagen (10 µg/ml) ([6]; milvexian 10 μM): 69 ± 1% | peak platelet aggregation response to arachidonic acid (250 µM) ([6]; milvexian 10 μM): 66 ± 2% | platelet aggregation to ADP, arachidonic acid, or collagen ([6]; result in words): did not alter | reduction of thrombus weight ([8]; 0.063 + 0.04 mg/kg+mg/kg/h IV, n = 6): 15 ± 10% | 20% maximal effective concentration (antithrombotic) ([8]; total plasma concentration, 95% CI 23–128): 55 nM | ex vivo PT [9, 14]: did not alter | ex vivo TT [9, 14]: did not alter | ex vivo APTT ([9]; ECAT rabbits, highest two doses, 120 min after start of infusion): elevated APTT significantly | prolongation of ex vivo APTT needed to achieve 50% thrombus weight reduction ([9]; rabbit ECAT): 1.6 fold
